Tests used:
ryegrass, Italian = assay: Test C pre-/postemergence herbicide test; format: in vivo, Lolium multiflorum; details: Preemergence
How it was run: (§1)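 Visual rating, 0 (no effect) to 100 (complete control), versus untreated controls after 13 to 15 days in the greenhouse. Pre: seeds in loam/sand, sprayed at planting. Post: 1- to 4-leaf plants (2 to 18 cm) in peat-based mix. Compounds in non-phytotoxic solvent plus surfactant.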

wheat = assay: Test A pre-/postemergence herbicide test; format: in vivo, Triticum aestivum; details: Postemergence
How it was run: (§2)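 Seeds sown in loam soil/sand blend received a preemergence directed soil spray of test chemical in non-phytotoxic solvent with surfactant; postemergence plants (2–10 cm, one- to two-leaf stage) were sprayed with the same formulation. After about 10 days in greenhouse, injury was rated visually versus untreated controls, 0 (no effect) to 100 (complete control).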

nutsedge, yellow = assay: Test C pre-/postemergence herbicide test; format: in vivo, Cyperus esculentus; details: Preemergence
How it was run: as §1

johnsongrass = assay: Test C pre-/postemergence herbicide test; format: in vivo, Sorghum halepense; details: Preemergence
How it was run: as §1

foxtail, giant = assay: Test C pre-/postemergence herbicide test; format: in vivo, Setaria faberii; details: Preemergence
How it was run: as §1

pigweed = assay: Test A pre-/postemergence herbicide test; format: in vivo, Amaranthus retroflexus; details: for Plant response rating, Pigweed: 0 to 100 scale
How it was run: as §2

ragweed = assay: Test C pre-/postemergence herbicide test; format: in vivo, Ambrosia elatior; details: Preemergence
How it was run: as §1

giant foxtail = assay: Test A pre-/postemergence herbicide test; format: in vivo, Setaria faberii; details: for Plant response rating, Foxtail, Giant: 0 to 100 scale
How it was run: as §2

sedge, umbrella = assay: Test B flooded paddy test; format: in vivo, Cyperus difformis; details: 500 g ai/ha, Flood; scale of 0 to 100 where 0 is no effect and 100 is complete control
How it was run: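 Scored visually 0–100 (0 no effect, 100 complete control) versus controls after 13 to 15 greenhouse days. Treatment: compound added to paddy water kept 3 cm above soil, on 2-leaf-stage plants.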

crabgrass, large = assay: Test C pre-/postemergence herbicide test; format: in vivo, Digitaria sanguinalis; details: Preemergence
How it was run: as §1

blackgrass = assay: Test C pre-/postemergence herbicide test; format: in vivo, Alopecurus myosuroides; details: Preemergence
How it was run: as §1

[1] = 31 g ai/ha, scale 0 to 100, 0 is no effect and 100 is complete control
[2] = 62 g ai/ha, scale 0 to 100 (0 no effect, 100 complete control)
[3] = 125 g ai/ha, scale 0 to 100 (0 no effect, 100 complete control)
[4] = 125 g ai/ha, visual rating, 0 no effect, 100 complete control, approximately 10 days, preemergence
[5] = Postemergence, 125 g ai/ha, 0 is no effect, 100 is complete control
[6] = preemergence, 500 g ai/ha, 0 is no effect and 100 is complete control

SMILES: O=C1NCC(c2ccc(Cl)cc2)C1C(=O)Nc1cccc(F)c1F (stereo not drawn) [Compound 218]
- Ryegrass, Italian plant response rating (ryegrass, Italian; [1]): 0
- Ryegrass, Italian plant response rating (ryegrass, Italian; [2]): 0
- Plant response rating, Ryegrass, Italian (ryegrass, Italian; [3]): 0
- Plant response rating (scale of 0 to 100), Ryegrass, Italian (ryegrass, Italian; 250 g ai/ha): 50
- Plant response rating, Wheat (wheat; 125 g ai/ha, 0 to 100 scale, 0 is no effect, 100 is complete control): 20
- Wheat plant response rating (0 to 100 scale, 0 is no effect, 100 is complete control) (wheat; 500 g ai/ha): 50
- Nutsedge, Yellow plant response rating (nutsedge, yellow; [1]): 0
- Nutsedge, Yellow plant response rating (nutsedge, yellow; [2]): 0
- Plant response rating, Nutsedge, Yellow (nutsedge, yellow; [3]): 0
- Plant response rating (scale of 0 to 100), Nutsedge, Yellow (nutsedge, yellow; 250 g ai/ha): 0
- Johnsongrass plant response rating (johnsongrass; [1]): 0
- Johnsongrass plant response rating (johnsongrass; [2]): 10
- Plant response rating, Johnsongrass (johnsongrass; [3]): 15
- Plant response rating (scale of 0 to 100), Johnsongrass (johnsongrass; 250 g ai/ha): 40
- Foxtail, Giant plant response rating (foxtail, giant; [1]): 85
- Foxtail, Giant plant response rating (foxtail, giant; [2]): 90
- Plant response rating, Foxtail, Giant (foxtail, giant; [3]): 90
- Plant response rating (scale of 0 to 100), Foxtail, Giant (foxtail, giant; 250 g ai/ha): 95
- Plant response rating, Pigweed (pigweed; [4]): 30
- Plant response rating, Pigweed (pigweed; [5]): 0
- Pigweed plant response rating (0 to 100 scale, 0 is no effect, 100 is complete control) (pigweed; Postemergence, 500 g ai/ha): 40
- Plant response rating, Pigweed (pigweed; [6]): 70
- Ragweed plant response rating (ragweed; [1]): 40
- Ragweed plant response rating (ragweed; [2]): 35
- Plant response rating, Ragweed (ragweed; [3]): 50
- Plant response rating (scale of 0 to 100), Ragweed (ragweed; 250 g ai/ha): 85
- Plant response rating, Foxtail, Giant (giant foxtail; [4]): 90
- Plant response rating, Foxtail, Giant (giant foxtail; [5]): 60
- Foxtail, Giant plant response rating (0 to 100 scale, 0 is no effect, 100 is complete control) (giant foxtail; Postemergence, 500 g ai/ha): 90
- Plant response rating, Foxtail, Giant (giant foxtail; [6]): 90
- Plant response rating, Sedge, Umbrella (sedge, umbrella): 0
- Crabgrass, Large plant response rating (crabgrass, large; [1]): 90
- Crabgrass, Large plant response rating (crabgrass, large; [2]): 90
- Plant response rating, Crabgrass, Large (crabgrass, large; [3]): 100
- Plant response rating (scale of 0 to 100), Crabgrass, Large (crabgrass, large; 250 g ai/ha): 100
- Blackgrass plant response rating (blackgrass; [1]): 0
- Plant response rating, Blackgrass (blackgrass; 62 g ai/ha, scale 0 to 100): 10
- Plant response rating, Blackgrass (blackgrass; [3]): 50
- Plant response rating (scale of 0 to 100), Blackgrass (blackgrass; 250 g ai/ha): 80

— patent publication US10294202B2, “Pyrrolidinones as herbicides” (FMC Corporation, priority 2013, dated 2019)
